Earlier results as cited in patent US20230285287A1, “PHARMACEUTICAL COMPOSITIONS” (DOUGLAS PHARMACEUTICALS LIMITED, priority 2019, published 2023).
Entries after “also recorded” stand apart in the source; their conditions may differ.

Settings: known from the literature (Donato et al.)

CC(C)c1nc(CN(C)C(=O)N[C@H](C(=O)N[C@@H](Cc2ccccc2)C[C@H](O)[C@H](Cc2ccccc2)NC(=O)OCc2cncs2)C(C)C)cs1 [Ritonavir, 1,3-thiazol-5-ylmethyl N-[(2S,3S,5S)-3-hydroxy-5-[[(2S)-3-methyl-2-[[methyl-[(2-propan-2-yl-1,3-thiazol-4-yl)methyl]carbamoyl]amino]butanoyl]amino]-1,6-diphenylhexan-2-yl]carbamate]
chemical stability / degradation route: thermolytically driven; also recorded: particularly prone to hydrolysis; also recorded: oxygen labile
